Laboratory results taken from US4524066A, “Process for the preparation of injectable chondroitin polysulfate” (Luitpold-Werk Chemisch-pharmazeutische Fabrik, priority 1981, dated 1985).

Legend:
NMRI mice = experiment: Acute toxicity, NMRI mice, i.v.; type: in vivo
Dogs = experiment: Acute toxicity, dogs, i.v.; type: in vivo
Wistar rats = experiment: Acute toxicity, Wistar rats, i.v.; type: in vivo
Cats = experiment: Acute toxicity, cats, i.v.; type: in vivo

chondroitin polysulfate
LD50/7d (NMRI mice): > 3,500 mg/kg | LD50/7d (Dogs): > 1,000 mg/kg | LD50/7d (Wistar rats): > 3,000 mg/kg | LD50/7d (Cats): > 1,000 mg/kg | therapeutic benefit of daily doses (humans; daily doses of up to 500 mg): therapeutically advantageous | therapeutic action in humans (humans; single dosages 20-250 mg, in particular 30-150 mg, per individual in 0.2-2.0 ml): have a therapeutic action in humans
